From patent publication US20240336574A1 (LATIGO BIOTHERAPEUTICS, INC., priority 2021, published 2024) come the findings set out here.

This test has as its target T1, recombinant human NaV1.8 stably transfected HEK cells (Homo sapiens, UniProt Q9Y5Y9).
T1 construct: expressed in transfected cells; host or cells: HEK cells, stably transfected
The experiment in a line: Compound profiling on NaV1.8, human NaV1.8 cell line, SyncroPatch384PE automated patch clamp assay (Example 115, third set of compounds, Table 27). Format: cell-based. As to conditions: human NaV1.8 HEK cells, Table 27 (third set of compounds). Here is the method: Compound Profiling on NaV1.8 Human NaV1.8 Cell Line SyncroPatch384PE Assay
Compounds were tested on recombinant human NaV1.8 stably transfected HEK cells using the SyncroPatch384PE system, an automated patch clamp device. Cells were cultured at 37° C./5% CO2 in DMEM medium supplemented with GlutaMAX I, NEAA 1%, FBS 10% and seeded in T175 flasks. Cells were cultured at 30° C. one day prior to recording sodium currents. On the day of the recordings, cells were detached with 0.05% Trypsin-EDTA, resuspended in serum free DMEM medium and placed into the SyncroPatch384PE 6° C. pre-cooled cell hotel and shaken at 200 rpm. Intracellular solution (IC) contained, in mM: 10, CsCl; 110, CsF; 20, EGTA; 10, HEPES. Extracellular solution (EC) contained, in mM: 140, NaCl; 4, KCl; 5, Glucose; 10, HEPES; 2, CaCl2; 1, MgCl2. Washing solution contained, in mM: 40, NMDG; 100, NaCl; 4, KCl; 10, Glucose; 10, HEPES; 5, CaCl2; 1, MgCl2.
Compounds were tested in quadruplicates in 0.1% DMSO and 0.030% Pluronic Acid. Compounds were diluted 1:3.33 in EC solution to create a 10-point concentration response curve, spanning a final concentration range from 10-0.0002 μM in the assay plate. Compounds with low nM potency were retested using a lower concentration range (1-0.00002 μM). Each plate contained tetracaine and another tool compound as positive controls. Up to 7 compounds were tested on one plate. 150 μM tetracaine and 0.1% DMSO were used as high and low controls, respectively.
Whole cell patch clamp recordings were conducted according to Nanion's standard procedure for SyncroPatch384PE®. Cells were held at a holding potential of −120 mV. A depolarization step to 10 mV for 30 ms was applied (P1 measurement), followed by a hyperpolarization step to −100 mV for 100 ms. An inactivation step at −40 mV for 10 sec was applied before stepping to −100 mV for 20 ms, followed by a step to 10 mV for 30 ms (P2 measurement) and then back to −100 mV for 30 ms. Sweep interval was 15 sec with a sampling rate of 10 kHz. Following establishment of the whole-cell configuration in EC, two washing steps with reference buffer were performed to stabilize the baseline. Compounds were then applied by the SynchroPatch into each well and the current was recorded for five minutes in EC, followed by application of tetracaine to achieve full block at the end of the experiment. The potency of the compounds was assessed on two read-outs, resting state block (P1 measurement) or inactivated state block (P2 measurement) to obtain IC50 values. Values were normalized to high (tetracaine) and low (DMSO) controls.
A general note: The patch-clamp technique gives a direct electrical read-out from membranes.

[1] abbreviates: inactivated state block (P2 measurement), read-out: P2 IC50.
Setting [2] is: resting state block (P1 measurement), read-out: P1 IC50.

Where two headings read alike, the source gives them in different places. Where only a bound is given, the exact number is not on record here.

As usually defined, the IC50 is the point on the concentration scale where inhibition reaches its midpoint.

T1 sequence (Q9Y5Y9 whole entry): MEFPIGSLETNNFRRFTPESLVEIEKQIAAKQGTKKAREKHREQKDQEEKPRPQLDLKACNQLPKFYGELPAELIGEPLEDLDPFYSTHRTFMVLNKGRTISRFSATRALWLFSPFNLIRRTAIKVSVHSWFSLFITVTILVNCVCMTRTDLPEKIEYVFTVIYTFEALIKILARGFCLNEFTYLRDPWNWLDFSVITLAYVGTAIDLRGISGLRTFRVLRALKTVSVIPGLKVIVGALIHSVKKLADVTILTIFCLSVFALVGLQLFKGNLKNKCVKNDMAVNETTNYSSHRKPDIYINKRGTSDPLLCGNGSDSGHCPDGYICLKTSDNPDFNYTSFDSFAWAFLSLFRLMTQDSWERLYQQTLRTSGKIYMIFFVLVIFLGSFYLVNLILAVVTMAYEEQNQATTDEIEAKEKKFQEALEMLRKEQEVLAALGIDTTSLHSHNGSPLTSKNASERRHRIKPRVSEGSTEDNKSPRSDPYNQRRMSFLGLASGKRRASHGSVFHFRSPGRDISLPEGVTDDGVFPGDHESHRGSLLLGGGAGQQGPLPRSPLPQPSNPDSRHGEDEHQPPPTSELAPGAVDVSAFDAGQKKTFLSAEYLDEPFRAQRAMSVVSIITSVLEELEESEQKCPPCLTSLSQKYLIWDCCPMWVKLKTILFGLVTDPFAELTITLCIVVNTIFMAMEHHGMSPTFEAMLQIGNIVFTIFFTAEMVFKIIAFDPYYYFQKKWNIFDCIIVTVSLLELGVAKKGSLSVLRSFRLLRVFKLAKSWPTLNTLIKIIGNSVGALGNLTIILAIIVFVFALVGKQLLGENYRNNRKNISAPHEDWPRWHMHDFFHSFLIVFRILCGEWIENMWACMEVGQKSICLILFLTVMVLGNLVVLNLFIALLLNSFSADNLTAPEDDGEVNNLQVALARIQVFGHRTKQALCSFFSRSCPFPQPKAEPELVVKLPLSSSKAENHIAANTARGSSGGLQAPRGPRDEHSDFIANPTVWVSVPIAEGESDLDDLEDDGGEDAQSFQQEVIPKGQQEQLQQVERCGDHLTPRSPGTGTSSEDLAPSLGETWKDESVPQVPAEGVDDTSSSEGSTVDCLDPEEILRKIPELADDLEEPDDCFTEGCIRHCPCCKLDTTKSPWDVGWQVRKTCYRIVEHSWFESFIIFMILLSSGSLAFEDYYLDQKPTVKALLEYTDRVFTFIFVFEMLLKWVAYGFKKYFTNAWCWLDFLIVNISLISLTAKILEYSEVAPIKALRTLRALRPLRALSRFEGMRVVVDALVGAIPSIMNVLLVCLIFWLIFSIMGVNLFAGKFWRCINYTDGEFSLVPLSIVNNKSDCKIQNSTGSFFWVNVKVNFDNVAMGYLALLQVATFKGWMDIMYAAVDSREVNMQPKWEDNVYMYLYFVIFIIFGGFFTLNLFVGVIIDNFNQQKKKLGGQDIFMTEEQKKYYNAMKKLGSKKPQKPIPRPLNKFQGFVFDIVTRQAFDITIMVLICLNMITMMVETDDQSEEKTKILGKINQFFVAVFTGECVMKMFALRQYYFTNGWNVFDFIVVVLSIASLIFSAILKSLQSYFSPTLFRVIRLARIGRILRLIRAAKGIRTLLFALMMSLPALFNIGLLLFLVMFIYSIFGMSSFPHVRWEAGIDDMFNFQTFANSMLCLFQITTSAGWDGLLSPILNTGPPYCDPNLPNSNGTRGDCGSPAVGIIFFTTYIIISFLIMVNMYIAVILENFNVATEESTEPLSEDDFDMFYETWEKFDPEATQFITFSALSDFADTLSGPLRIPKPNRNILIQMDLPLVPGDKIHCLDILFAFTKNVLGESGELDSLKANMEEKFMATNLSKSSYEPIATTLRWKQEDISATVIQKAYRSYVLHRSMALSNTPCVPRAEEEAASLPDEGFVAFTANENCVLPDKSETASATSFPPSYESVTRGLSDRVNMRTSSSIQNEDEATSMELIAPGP

Take `Cc1cc(F)ccc1Oc1nnc(C(F)(F)F)cc1C(=O)Nc1ccc(C)c(S(C)(=N)=O)c1` (centres unmarked) [Compound 109, 3-(4-Fluoro-2-methylphenoxy)-N-(4-methyl-3-(S-methylsulfonimidoyl)phenyl)-6-(trifluoromethyl)pyridazine-4-carboxamide]: the IC50 by setting is: under setting [1], 0.201 to 0.5 µM; under setting [2], 0.201 to 0.5 µM.

Turning to `COc1c(Oc2ncc(C(F)(F)F)nc2C(=O)Nc2cccc(S(C)(=N)=O)c2)ccc(F)c1F` (centres unmarked) [Compound 136, 3-(3,4-difluoro-2-methoxy-phenoxy)-N-[3-(methylsulfonimidoyl)phenyl]-6-(trifluoromethyl)pyrazine-2-carboxamide], the IC50 is, setting by setting: under setting [1], ≤ 0.2 µM; under setting [2], ≤ 0.2 µM.

In the case of `CS(=O)(=O)c1cccc(NC(=O)c2cc(C(F)(F)F)nnc2Oc2cc(F)ccc2Cl)c1` [Compound 73], the half-maximal inhibitory concentration (IC50) under setting [1] fell in the range of 0.201 to 0.5 µM and the IC50 under setting [2] lay in the range of 0.201 to 0.5 µM.

For `Cc1cc(C#N)ccc1Oc1nnc(C(F)(F)F)cc1C(=O)Nc1cccc(S(N)(=O)=O)c1` [Compound 123, 3-(4-Cyano-2-methylphenoxy)-N-(3-sulfamoylphenyl)-6-(trifluoromethyl)pyridazine-4-carboxamide], the IC50 by setting is: under setting [1], ≤ 0.2 µM; under setting [2], ≤ 0.2 µM.

Turning to `Cc1cc(-c2cn[nH]c2)ccc1Oc1nnc(C(F)(F)F)cc1C(=O)Nc1cccc(S(C)(=O)=O)c1` [Compound 133, 3-[2-Methyl-4-(1H-pyrazol-4-yl)phenoxy]-N-(3-methylsulfonylphenyl)-6-(trifluoromethyl)pyridazine-4-carboxamide], the IC50 is > 5 µM under setting [1] and > 5 µM under setting [2].

As for `COc1cc(F)ccc1Oc1nnc(C(F)(F)F)cc1C(=O)Nc1cccc(N2CCOC2=O)c1` [Compound 57], the IC50 under setting [1] is > 5 µM and the IC50 under setting [2] is > 5 µM.

With `Cc1cc(F)ccc1Oc1nnc(C(F)(F)F)cc1C(=O)Nc1ccc[n+]([O-])c1` [Compound 61], the IC50 is, setting by setting: under setting [1], > 5 µM; under setting [2], > 5 µM.

As for `COc1cc(F)ccc1Oc1nnc(C(F)(F)F)cc1C(=O)Nc1cccc(S(=O)(=O)C(C)C)c1` [Compound 17], the IC50 under setting [1] was 0.201 to 0.5 µM and the IC50 under setting [2] lay within 0.501 to 1 µM.

As for `COc1cc(C#N)ccc1Oc1nnc(C(F)(F)F)cc1C(=O)Nc1cccc(C(N)=O)c1` [Compound 76], the IC50 was ≤ 0.2 µM under setting [1] and ≤ 0.2 µM under setting [2].

With `COc1cc(NC(=O)c2cc(C(F)(F)F)nnc2Oc2ccc(F)cc2OC)ccn1` [Compound 33], the IC50 runs as follows: under setting [1], ≤ 0.2 µM; under setting [2], ≤ 0.2 µM.

For `Cc1ccc(F)cc1Oc1nnc(C(F)(F)F)cc1C(=O)Nc1cccc(S(C)(=O)=O)c1` [Compound 70], the IC50 reads like this: under setting [1], 0.501 to 1 µM; under setting [2], 0.501 to 1 µM.

For the molecule `COc1cc(F)ccc1Oc1nnc(C(F)(F)F)cc1C(=O)Nc1cc(C#N)cnn1` [Compound 56], the IC50 is > 5 µM under setting [1] and > 5 µM under setting [2].

Consider `COc1cc(F)ccc1Oc1nnc(C(F)(F)F)cc1C(=O)Nc1cc(S(C)(=O)=O)ccc1F` [Compound 23], for which the IC50 fell in the range of 0.201 to 0.5 µM under setting [1] and 0.201 to 0.5 µM under setting [2].

For the molecule `COc1cc(F)ccc1Oc1nnc(C)cc1C(=O)Nc1cccc(S(C)(=O)=O)c1` [Compound 104], the IC50 is > 5 µM under setting [1] and > 5 µM under setting [2].

Turning to `COc1cc(F)ccc1Oc1nnc(C(F)(F)F)cc1C(=O)Nc1cccc(C(N)=O)c1` [Compound 26], the IC50 is ≤ 0.2 µM under setting [1] and ≤ 0.2 µM under setting [2].

For the molecule `Cc1ccc(F)cc1Oc1nnc(C(F)(F)F)cc1C(=O)Nc1cc(S(C)(=O)=O)ccc1F` [Compound 71], the IC50 under setting [1] is > 5 µM and the IC50 under setting [2] was > 5 µM.

`COc1cc(NC(=O)c2cc(C(F)(F)F)nnc2Oc2ccc(F)cc2C)ccn1` [Compound 86]: the IC50 lay in the range of 0.501 to 1 µM under setting [1] and 0.501 to 1 µM under setting [2].

As for `Cc1cc(F)ccc1Oc1nnc(C(F)(F)F)cc1C(=O)Nc1cccc(S(C)(=O)=O)n1` [Compound 4], the IC50 reads like this: under setting [1], > 5 µM; under setting [2], > 5 µM.

For `COC(=O)c1cncc(NC(=O)c2cc(C(F)(F)F)nnc2Oc2ccc(F)cc2OC)n1` [Compound 46], the concentration for half-maximal inhibition (IC50) is, setting by setting: under setting [1], > 5 µM; under setting [2], > 5 µM.
